Assay results: patent publication US8575197B2, “Pyrolinone derivative and pharmaceutical composition comprising the same” (Shionogi & Co., Ltd., priority 2008, dated 2013)

Molecular target: human P2X3 receptor (Homo sapiens (Human), UniProt P56373)
Test: P2X3 receptor inhibition, ATP-evoked Fluo-3 calcium fluorescence (FDSS 3000)
Assay type: cell-based
Conditions: C6BU-1 cell transfected with human P2X3 receptor gene; ATP-evoked Fluo-3 fluorescence
In short: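 C6BU-1 cells stably transfected with human P2X3, loaded with 4 μM Fluo-3-AM for 1 h at 37 °C in HEPES buffer pH 7.5 with probenecid. Compound added 5 min before 40 nM ATP solution; fluorescence followed 3 min. IC50 from ratio of peak post-ATP to baseline fluorescence.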

human P2X3 receptor, sequence (P56373 whole entry): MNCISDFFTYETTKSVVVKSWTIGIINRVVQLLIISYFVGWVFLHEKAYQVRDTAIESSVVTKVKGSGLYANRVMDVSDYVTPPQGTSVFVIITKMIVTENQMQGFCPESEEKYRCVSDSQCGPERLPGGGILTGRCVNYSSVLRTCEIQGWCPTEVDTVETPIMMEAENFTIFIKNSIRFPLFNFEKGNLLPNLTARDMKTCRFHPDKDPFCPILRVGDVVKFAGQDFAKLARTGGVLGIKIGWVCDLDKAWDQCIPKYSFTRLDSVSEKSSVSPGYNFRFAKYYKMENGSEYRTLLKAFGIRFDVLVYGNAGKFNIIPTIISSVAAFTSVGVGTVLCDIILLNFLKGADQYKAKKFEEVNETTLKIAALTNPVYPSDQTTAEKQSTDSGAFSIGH

SMILES | IC50
COc1ccccc1C1c2c(C(C)(C)C)n[nH]c2C(=O)N1c1ccc(CN(C)C)cc1 (stereo not drawn) [II-072] | 739 nM
COCc1ccccc1C1C(C(=O)C(C)C)=C(O)C(=O)N1c1ccc(-c2cccs2)cc1 (stereo not drawn) [Compound I-215] | 13 nM
COc1ccccc1C1c2c(C(C)(C)C)n[nH]c2C(=O)N1c1ccc(-c2ccco2)cc1 (stereo not drawn) [II-203] | 28 nM
Cc1cc(-c2ccc(N3C(=O)c4[nH]nc(C(C)(C)C)c4C3c3ccccc3OCCO)cc2)on1 (stereo not drawn) [II-015] | 87 nM
CC(=O)N(C)c1ccccc1C1c2c(C(C)C)n[nH]c2C(=O)N1c1ccc(-c2ccsc2)cc1 (stereo not drawn) [II-082] | 44 nM
COc1ccc(F)cc1C1C(C(=O)C(C)(C)C)=C(O)C(=O)N1c1ccc(-c2ccon2)cc1 (stereo not drawn) [Compound I-021] | 382 nM
CC(C)CC(=O)C1=C(O)C(=O)N(c2ccc(C3=NCCS3)cc2)C1c1ccccc1OC(C)C (stereo not drawn) [Compound I-413] | 42 nM
CC(C)(C)c1n[nH]c2c1C(c1ccccc1OCC(=O)O)N(c1ccc(-c3ccon3)cc1)C2=O (stereo not drawn) [II-029] | 90 nM
CC(C)C(=O)C1=C(O)C(=O)N(c2ccc(-c3ccoc3)cc2)C1c1cccnc1OCCCO (stereo not drawn) [Compound I-566] | 61 nM
COCCOc1ccccc1C1C(C(=O)CC(C)C)=C(O)C(=O)N1c1ccc(-c2nc(C)no2)cc1 (stereo not drawn) [Compound I-273] | 491 nM
COCc1ncccc1C1C(C(=O)C(C)C)=C(O)C(=O)N1c1ccc(-c2ccsc2)cc1 (stereo not drawn) [Compound I-194] | 63 nM
CSc1ccccc1C1c2c(C(C)(C)C)n[nH]c2C(=O)N1c1ccc(-c2ccon2)cc1 (stereo not drawn) [II-099] | 46 nM
COCCOc1ncccc1C1C(C(=O)C2CCCC2)=C(O)C(=O)N1c1ccc(-c2ccon2)cc1 (stereo not drawn) [Compound I-521] | 554 nM
COCCCOc1ccccc1C1C(C(=O)C(C)C)=C(O)C(=O)N1c1ccc(SC)cc1 (stereo not drawn) [Compound I-484] | 91 nM
COc1ncccc1C1C(C(=O)C(C)(C)C)=C(O)C(=O)N1c1ccc(-c2ccsc2)nc1 (stereo not drawn) [Compound I-108] | 192 nM
COC(=O)COc1ccccc1C1C(C(=O)C(C)(C)C)=C(O)C(=O)N1c1ccc(-c2ccon2)cc1 (stereo not drawn) [Compound I-133] | 367 nM
Cc1cc(-c2ccc(N3C(=O)C(O)=C(C(=O)C(C)C)C3c3ccccc3OC(F)F)cc2)cs1 (stereo not drawn) [Compound I-321] | 70 nM
Cc1ccc(-c2ccc(N3C(=O)C(O)=C(C(=O)C(C)C)C3c3cccnc3OCCO)cc2)o1 (stereo not drawn) [Compound I-483] | 89 nM
COc1ccccc1C1C(C(=O)CC(C)C)=C(O)C(=O)N1c1ccc(-c2ccoc2)cc1 (stereo not drawn) [Compound I-351] | 101 nM
CNC(=O)c1ccccc1C1c2c(C(C)C)n[nH]c2C(=O)N1c1ccc(-c2ccsc2)cc1 (stereo not drawn) [II-092] | 2 nM
CCC(CC)C1C(C(=O)c2ccc(C(=O)N(C)C)cc2)=C(O)C(=O)N1c1ccc(-c2ccon2)cc1 (stereo not drawn) [Compound I-003] | 40 nM
CC(C)(C)C(=O)C1=C(O)C(=O)N(c2ccc(-c3ccon3)cc2)C1c1ccccc1OCC#N (stereo not drawn) [Compound I-103] | 355 nM
COCOc1ccccc1C1C(C(=O)CC(C)C)=C(O)C(=O)N1c1ccc(-c2ccsc2)cc1 (stereo not drawn) [Compound I-249] | 10 nM
COC(=O)C(C)(C)CC(=O)C1=C(O)C(=O)N(c2ccc(-c3ccsc3)cc2)C1c1ccccc1OC (stereo not drawn) [Compound I-556] | 32 nM

SMILES | IC50
COCc1ccccc1[C@@H]1C(C(=O)C(C)C)=C(O)C(=O)N1c1ccc(-c2ccsc2)cc1 [Compound I-255] | 8 nM
COCc1ccccc1C1C(C(=O)CC(C)C)=C(O)C(=O)N1c1ccc(C2=NCCS2)cc1 (stereo not drawn) [Compound I-414] | 268 nM
Cc1nc(-c2ccc(NC3=CC(C4CCCCC4)N(c4ccc(-c5noc(C)n5)cc4)C3=O)cc2)no1 (stereo not drawn) [Compound I-469] | 646 nM
Cc1ccc(-c2ccc(N3C(=O)C(O)=C(C(=O)C(C)C)C3c3cccnc3OCCCO)cc2)s1 (stereo not drawn) [Compound I-568] | 66 nM
COCc1ccccc1C1C(C(=O)CC(C)C)=C(O)C(=O)N1c1ccc(-c2ccco2)cc1 (stereo not drawn) [Compound I-355] | 44 nM
COc1ncccc1C1C(C(=O)CC(C)(C)C)=C(O)C(=O)N1c1ccc(-c2ccsc2)cc1 (stereo not drawn) [Compound I-462] | 427 nM
COc1ncccc1C1c2c(C(C)(C)C)n[nH]c2C(=O)N1c1ccc(-c2nc(C)no2)cc1 (stereo not drawn) [II-195] | 944 nM
CC(C)(C)C(=O)C1=C(O)C(=O)N(c2ccc(-c3cccs3)cc2)C1c1cccnc1OCCO (stereo not drawn) [Compound I-172] | 24 nM
COCCOc1ccccc1C1C(C(=O)C(C)C)=C(O)C(=O)N1c1ccc(-c2ccc(C)s2)cc1 (stereo not drawn) [Compound I-263] | 8 nM
COCc1ccccc1C1C(C(=O)CC(C)C)=C(O)C(=O)N1c1ccc(-c2noc(C)n2)cc1 (stereo not drawn) [Compound I-315] | 252 nM
Cc1noc(-c2ccc(N3C(=O)c4[nH]nc(C(C)(C)C)c4C3c3ccccc3OCCO)cc2)n1 (stereo not drawn) [II-016] | 158 nM
COC(=O)COc1ccccc1C1c2c(C(C)(C)C)n[nH]c2C(=O)N1c1ccc(-c2ccsc2)cc1 (stereo not drawn) [II-020] | 8 nM
COc1ccc(C(=O)C2=C(O)C(=O)N(c3ccc(-c4cc(C)no4)cc3)C2c2ccccc2OC)cc1 (stereo not drawn) [Compound I-027] | 40 nM
COCCOc1cc(F)ccc1C1C(C(=O)CC(C)C)=C(O)C(=O)N1c1ccc(-c2noc(C)n2)cc1 (stereo not drawn) [Compound I-365] | 82 nM
CC(C)C(=O)C1=C(O)C(=O)N(c2ccc(-c3ccsc3)cc2)C1c1cccnc1OCCCO (stereo not drawn) [Compound I-564] | 18 nM
COc1ccccc1[C@H]1C(C(=O)CC(C)C)=C(O)C(=O)N1c1ccc(-c2ccsc2)cc1 [Compound I-280] | 477 nM
Cc1ccc(-c2ccc(N3C(=O)C(O)=C(C(=O)CC(C)C)C3c3cccnc3C(=O)N(C)C)cc2)s1 (stereo not drawn) [Compound I-574] | 280 nM
Cc1ccc(-c2ccc(N3C(=O)C(O)=C(C(=O)CC(C)C)C3c3ccccc3OC(F)F)cc2)o1 (stereo not drawn) [Compound I-361] | 48 nM
COCCOc1ccccc1C1C(C(=O)C(C)(C)C)=C(O)C(=O)N1c1ccc(-c2ccoc2)cc1 (stereo not drawn) [Compound I-156] | 32 nM
CC(C)c1n[nH]c2c1C(c1ccccc1N)N(c1ccc(-c3ccsc3)cc1)C2=O (stereo not drawn) [II-081] | 189 nM
COc1ccccc1C1C(C(=O)C(C)C)=C(O)C(=O)N1c1ccc(-c2ccco2)cc1 (stereo not drawn) [Compound I-224] | 73 nM
Cc1cc(-c2ccc(N3C(=O)C(O)=C(C(=O)C(C)C)C3c3ccccc3CC(=O)N3CCCC3)cc2)cs1 (stereo not drawn) [Compound I-526] | 219 nM
CC(C)C(=O)C1=C(O)C(=O)N(c2ccc(-c3ccsc3)cc2)C1c1ccccc1OCCCO (stereo not drawn) [Compound I-429] | 7 nM
COc1ccccc1C1C(C(=O)C2CC2)=C(O)C(=O)N1c1ccc(-c2ccsc2)cc1 (stereo not drawn) [Compound I-218] | 73 nM

SMILES | IC50
Cc1nc(-c2ccc(N3C(=O)c4[nH]nc(C(C)(C)C)c4C3c3ccccc3OCCO)cc2)no1 (stereo not drawn) [II-017] | 54 nM
Cc1cc(-c2ccc(N3C(=O)C(O)=C(C(=O)CC(C)C)C3c3ccccc3C(=O)N(C)C)cc2)cs1 (stereo not drawn) [Compound I-404] | 71 nM
Cc1ccc(-c2ccc(N3C(=O)C(O)=C(C(=O)C(C)C)C3c3ccccc3N3CCOCC3)cc2)o1 (stereo not drawn) [Compound I-486] | 4 nM
COCc1ccccc1C1C(C(=O)CC(C)C)=C(O)C(=O)N1c1ccc(SC(F)(F)F)cc1 (stereo not drawn) [Compound I-448] | 246 nM
Cc1ccc(-c2ccc(N3C(=O)C(O)=C(C(=O)C(C)C)C3c3ccccc3CCC(=O)NC(C)C)cc2)o1 (stereo not drawn) [Compound I-538] | 119 nM
CCOc1ncccc1C1C(C(=O)C2CCCC2)=C(O)C(=O)N1c1ccc(-c2ccsc2)cc1 (stereo not drawn) [Compound I-515] | 37 nM
COc1ccccc1C1c2c(C(=O)N(C)C)n[nH]c2C(=O)N1c1ccc(-c2ccsc2)cc1 (stereo not drawn) [II-180] | 262 nM
CC(C)Oc1ccccc1C1C(C(=O)C(C)C)=C(O)C(=O)N1c1ccc(-c2csnn2)cc1 (stereo not drawn) [Compound I-533] | 33 nM
COCCOc1ccccc1C1C(C(=O)C(C)C)=C(O)C(=O)N1c1ccc(-c2ccsc2)cc1 (stereo not drawn) [Compound I-161] | 7 nM
COc1ccccc1C1C(C(=O)CC(C)C)=C(O)C(=O)N1c1ccc(-c2ccc(C)s2)cc1 (stereo not drawn) [Compound I-327] | 93 nM
Cc1nc(-c2ccc(N3C(=O)C(O)=C(C(=O)CC(C)C)C3c3ccccc3OC(F)(F)F)cc2)no1 (stereo not drawn) [Compound I-319] | 222 nM
CNC(=O)C(C)(C)c1n[nH]c2c1C(c1ccccc1OC)N(c1ccc(-c3ccsc3)cc1)C2=O (stereo not drawn) [II-170] | 34 nM
COCc1ccccc1[C@@H]1C(C(=O)C(C)C)=C(O)C(=O)N1c1ccc(-c2ccc(C)s2)cc1 [Compound I-393] | 15 nM
CC(C)c1n[nH]c2c1C(c1ccccn1)N(c1ccc(-c3ccsc3)cc1)C2=O (stereo not drawn) [II-233] | 92 nM
COc1ccccc1C1C(C(=O)CC(C)C)=C(O)C(=O)N1c1ccc(-c2cscn2)cc1 (stereo not drawn) [Compound I-420] | 257 nM
COc1cc(F)ccc1C1C(C(=O)C(C)C)=C(O)C(=O)N1c1ccc(-c2ccsc2)cc1 (stereo not drawn) [Compound I-325] | 18 nM
Cc1cc(-c2ccc(N3C(=O)C(O)=C(C(=O)CC(C)C)C3c3ccccc3OC(C)C)cc2)cs1 (stereo not drawn) [Compound I-373] | 51 nM
COc1ncccc1C1c2c(C(C)(C)C)n[nH]c2C(=O)N1c1ccc(-c2ccoc2)cc1 (stereo not drawn) [II-220] | 69 nM
COCCOc1ccccc1C1C(C(=O)CC(C)C)=C(O)C(=O)N1c1ccc(SC(F)(F)F)cc1 (stereo not drawn) [Compound I-446] | 338 nM
COc1ccc(C(=O)C2=C(O)C(=O)N(c3ccc(-c4ccsc4)cc3)C2C2COC(C)(C)OC2)cn1 (stereo not drawn) [Compound I-288] | 36 nM
CC(=O)NCCOc1ccccc1C1c2c(C(C)C)n[nH]c2C(=O)N1c1ccc(-c2ccsc2)cc1 (stereo not drawn) [II-176] | 10 nM
CC(C)C(=O)C1=C(O)C(=O)N(c2ccc(-c3ccon3)cc2)C1c1ccccc1OCC1CC1 (stereo not drawn) [Compound I-588] | 29 nM
COc1ccccc1C1c2c(C(C)(C)C)n[nH]c2C(=O)N1c1ccc(-c2ccsc2Cl)cc1 (stereo not drawn) [II-272] | 392 nM
CC(C)c1n[nH]c2c1C(c1ccccc1OCC(=N)NO)N(c1ccc(-c3ccsc3)cc1)C2=O (stereo not drawn) [II-185] | 11 nM
